Measured values: patent US9029399B2, “17α-hydroxylase/C17,20-lyase inhibitors” (Novartis AG, priority 2011, dated 2015)

Legend:
[1] = target: Human CYP17 enzyme (Cytochrome P450, 17-20 lyase) (Homo sapiens (Human), UniProt P05093); experiment: CYP17 lyase assay, recombinant human CYP17 enzyme, 17-α-hydroxy pregnenolone [21-3H] substrate; assay type: biochemical; details: for IC50: recombinant human CYP17, first value of Human/Rat cell, read-out: Lyase IC 50 Human
From the text: 1) Cvtochrome P450, 17-20 Lyase (CYP17-Lyase) Assay Development Using Recombinant Human CYP17 Enzyme and 17-α-Hydroxy Pregnenolone [21-3H] as the Substrate
Cytochrome P450, 17-α-Hydroxylase, 17-20 lyase (CYP17) is a multi functional enzyme that plays a key role in the biosynthesis of steroid hormones. […] In the hydroxylation reaction, it converts progesterone and pregnenolone to the corresponding hydroxylated products 17-α-hydroxy progesterone and 17-α-hydroxy pregnenolone. In the lyase reaction, it catalyzes the conversion of these hydroxylated substrates to Androstenedione and Dehydroepiandrosterone (DHEA) respectively. In the Cyp17 lyase assay described here, the conversion of 17-α-hydroxy pregnenolone to Dehydroepiandrosterone and acetic acid is being monitored.
The conversion of 17-α-hydroxy pregnenolone to Dehydroepiandrosterone is accompanied by the release of acetic acid. In the Cyp17 lyase assay, 17-α-hydroxy pregnenolone labeled with tritium (3H) at position 21 is used as the substrate. Chloroform extraction removes the radioactive steroids and acetic acid is taken into aqueous layer. The tritiated acetic acid released in the assay thus extracted is quantified to determine the enzyme activity.
Human Cyp 17 gene was cloned and expressed in Adenoviral expression system in A549 cell lines. The purified cell membrane preparations were used as the source for Human CYP17 enzyme. Total protein concentration: 8 mg/mL.
For routine screening, the assay was set up with 16 μg of enzyme in 50 μL reaction volume. 17α-hydroxy pregnenolone [21-3H] was added to a final concentration of […] NADPH is used at a final concentration of 4.2 mM. Total reaction volume was made up to 50 μL with 50 mM Phosphate buffer pH 7.5. The reaction mixture was incubated at room temperature for 90 minutes with gentle shaking. The reaction was stopped by the addition of 100 μl, of buffer. 500 μl, of 5% freshly prepared activated charcoal was added to the solution and mixed well by vortexing. The samples were centrifuged at 17568×g for 5 minutes. (14000 rpm). The supernatant was carefully transferred to fresh tube and 1.3 mL of scintillation fluid was added, mixed by vortexing.
The measurements were carried out in 2.0 mL Eppendorf™ tubes. Each tube was counted for 1 minute. The amount of tritiated acetic acid released is proportional to the lyase activity. Percent lyase activity in presence of inhibitor was calculated using the formula given below.
[formula] Sample: Enzyme reaction in presence of inhibitor. Positive control: Enzyme reaction without inhibitor but containing DMSO at 1% final concentration. Blank—Contains all reagents except enzyme. % Inhibition=100%−% Lyase activity
For IC50 determination, the % inhibition was plotted as a function of inhibitor concentration. The data was fitted to sigmoidal equation using Graphpad Prism® software IV to generate IC50 values.

Rat CYP 17 Lyase = Rat CYP 17 Lyase (Rattus norvegicus (Rat), UniProt P11715); experiment: Rat CYP17 lyase model, rat testes microsomes; assay type: biochemical; details: substrate 0.5 μM, second value of Human/Rat cell, read-out: Lyase IC 50 Rat
Sequence of Rat CYP 17 Lyase (P11715 whole entry): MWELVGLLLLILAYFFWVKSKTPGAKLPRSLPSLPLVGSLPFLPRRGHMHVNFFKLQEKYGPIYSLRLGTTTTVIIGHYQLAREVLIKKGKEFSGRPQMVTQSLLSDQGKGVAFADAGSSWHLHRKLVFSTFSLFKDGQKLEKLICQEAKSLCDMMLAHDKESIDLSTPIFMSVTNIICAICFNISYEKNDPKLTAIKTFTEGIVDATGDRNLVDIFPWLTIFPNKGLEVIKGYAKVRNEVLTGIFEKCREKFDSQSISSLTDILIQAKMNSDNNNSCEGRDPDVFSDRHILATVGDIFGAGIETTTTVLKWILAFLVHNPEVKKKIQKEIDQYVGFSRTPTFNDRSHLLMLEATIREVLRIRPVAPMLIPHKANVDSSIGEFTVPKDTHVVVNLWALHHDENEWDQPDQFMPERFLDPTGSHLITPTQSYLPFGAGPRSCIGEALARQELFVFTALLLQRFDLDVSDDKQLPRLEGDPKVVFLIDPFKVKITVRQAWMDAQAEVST
Method: For the Rat CYP 17 Lyase Model:
The same procedure described above was used but using rat testes microsomes as the source and with a substrate concentration of 0.5 μM.

Sequence of Human CYP17 enzyme (Cytochrome P450, 17-20 lyase) (P05093 whole entry): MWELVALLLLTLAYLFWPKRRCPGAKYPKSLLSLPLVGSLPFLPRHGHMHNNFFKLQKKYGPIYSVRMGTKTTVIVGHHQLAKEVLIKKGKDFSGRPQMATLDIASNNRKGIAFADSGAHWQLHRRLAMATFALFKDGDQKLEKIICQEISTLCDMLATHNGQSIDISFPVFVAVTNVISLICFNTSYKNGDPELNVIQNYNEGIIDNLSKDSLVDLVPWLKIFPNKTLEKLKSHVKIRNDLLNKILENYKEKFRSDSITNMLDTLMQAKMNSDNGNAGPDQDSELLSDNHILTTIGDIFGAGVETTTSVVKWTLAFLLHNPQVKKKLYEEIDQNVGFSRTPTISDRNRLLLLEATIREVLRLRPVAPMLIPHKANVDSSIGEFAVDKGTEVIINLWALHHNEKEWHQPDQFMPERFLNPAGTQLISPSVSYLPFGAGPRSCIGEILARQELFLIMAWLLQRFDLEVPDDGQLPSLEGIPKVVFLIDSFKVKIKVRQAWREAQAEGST

Row | inhibition at 10 µM [1] | SMILES | IC50 [1] | IC50 (Rat CYP 17 Lyase)
1 |  | O=C1N(c2ccnc(Cl)c2)CCN1c1cnccc1C1CC1 [Example 1A, 1-(2-chloropyridin-4-yl)-3-(4-cyclopropylpyridin-3-yl)imidazolidin-2-one] | 8 nM | 2.7 nM
2 |  | O=C1N(c2ccnc(C(F)(F)F)c2)CCN1c1cnccc1C1CC1 [Example 2A, 1-(4-cyclopropylpyridin-3-yl)-3-(2-(trifluoromethyl)pyridin-4-yl)imidazolidin-2-one] | 9 nM | 1.1 nM
3 |  | COc1cc(N2CCN(c3cnccc3C3CC3)C2=O)ccn1 [Example 9A, 1-(4-cyclopropylpyridin-3-yl)-3-(2-methoxypyridin-4-yl)imidazolidin-2-one] | 42 nM | 4.6 nM
4 |  | O=C1N(c2cnccc2C2CC2)[C@@H]2C[C@@H]2N1c1ccnc(C(F)(F)F)c1 [Example 32A-II, (1R,5S)-2-(4-cyclopropylpyridin-3-yl)-4-(2-(trifluoromethyl)pyridin-4-yl)-2,4-diazabicyclo[3.1.0]hexan-3-one] | 6.9 nM | 3 nM
5 |  | O=C1N(c2ccnc(C3CC3)c2)CCN1c1cnccc1C1CC1 [Example 39A, 1-(4-cyclopropylpyridin-3-yl)-3-(2-cyclopropylpyridin-4-yl)imidazolidin-2-one] | 12 nM | 
6 |  | COc1cc(N2CCN(c3cnccc3C3CC3)C2=O)ncn1 [Example 40A, 1-(4-cyclopropylpyridin-3-yl)-3-(6-methoxypyrimidin-4-yl)imidazolidin-2-one] | 84 nM | 
7 |  | Cc1cc(N2CCN(c3cnccc3C3CC3)C2=O)ncn1 [Example 41A, 1-(4-cyclopropylpyridin-3-yl)-3-(6-methylpyrimidin-4-yl)imidazolidin-2-one] | 70 nM | 
8 |  | Cc1cc(N2CCN(c3cnccc3C3CC3)C2=O)ncc1F [Example 42A, 1-(4-cyclopropylpyridin-3-yl)-3-(5-fluoro-4-methylpyridin-2-yl)imidazolidin-2-one] | 22 nM | 
9 |  | O=C1N(c2ccnc(C3CC3)n2)CCN1c1cnccc1C1CC1 [Example 43A, 1-(4-cyclopropylpyridin-3-yl)-3-(2-cyclopropylpyrimidin-4-yl)imidazolidin-2-one] | 36 nM | 
10 |  | Cc1nccc(N2CCN(c3cnccc3C3CC3)C2=O)n1 [Example 44A, 1-(4-cyclopropylpyridin-3-yl)-3-(2-methylpyrimidin-4-yl)imidazolidin-2-one] | 397 nM | 
11 |  | O=C1N(c2cc(Cl)nc(C(F)(F)F)n2)CCN1c1cnccc1C1CC1 [Example 45A, 1-(6-chloro-2-(trifluoromethyl)pyrimidin-4-yl)-3-(4-cyclopropylpyridin-3-yl) imidazolidin-2-one] | 10 nM | 
12 |  | O=C1N(c2cc(Cl)nc(Cl)c2)CCN1c1cnccc1C1CC1 [Example 46A, 1-(4-cyclopropylpyridin-3-yl)-3-(2,6-dichloropyridin-4-yl)imidazolidin-2-one] | 1.9 nM | 
13 |  | O=C1N(c2cc(Cl)nc(C3CC3)c2)CCN1c1cnccc1C1CC1 [Example 47A, 1-(2-chloro-6-cyclopropylpyridin-4-yl)-3-(4-cyclopropylpyridin-3-yl)imidazolidin-2-one] | 5.2 nM | 
14 |  | O=C1N(c2cc(C3CC3)nc(C(F)(F)F)c2)CCN1c1cnccc1C1CC1 [Example 48A, 1-(2-cyclopropyl-6-(trifluoromethyl)pyridin-4-yl)-3-(4-cyclopropylpyridin-3-yl)imidazolidin-2-one] | 4.75 nM | 
15 |  | O=C1N(c2cc(C(F)(F)F)nc(C(F)(F)F)c2)CCN1c1cnccc1C1CC1 [Example 49A, 1-(2,6-bis(trifluoromethyl)pyridin-4-yl)-3-(4-cyclopropylpyridin-3-yl)imidazolidin-2-one] | 6 nM | 
16 | 51% | O=C1N(c2ccnc(C(F)(F)F)c2)CCN1c1c(C2CC2)ccnc1O [Example 50A, 1-(4-cyclopropyl-2-hydroxypyridin-3-yl)-3-(2-(trifluoromethyl)pyridin-4-yl)imidazolidin-2-one] |  | 
